Measured values from US9528114B2, “Method for amplifying locus in bacterial cell” (DANISCO US INC., priority 2008, dated 2016).

Legend:
Bacillus subtilis BG3594 = assay: Sensitivity threshold to β-chloro-D-alanine, dilutions plated on LB agar plates; format: cell-based; set-up: key to Resistance (growth) on LB agar plate: +: growth; −: no growth; conditions: for Resistance (growth) on LB agar plate: strain BG3594; for Growth of BG3594 in presence of CDA: LB agar
Procedure: (§1) In a first phase, the concentration of β-chloro-D-alanine (CDA) necessary to inhibit growth of B. subtilis was determined by plating dilutions of LB-grown strain BG3594 on LB agar plates containing different concentrations of CDA. […] Other alanine racemase inhibitors, such as cycloserine, could be used instead of CDA.

BG3594, pDALsub1 = assay: Sensitivity to β-chloro-D-alanine of strain carrying alr-expressing plasmid, LB agar plates; format: cell-based, Bacillus subtilis; set-up: key to Resistance (growth) on LB agar plate: +: growth; −: no growth; conditions: for Resistance (growth) on LB agar plate: strain BG3594, pDALsub1
Procedure: as §1

For `N[C@H](CCl)C(=O)O` [CDA, β-chloro-D-alanine], the “Resistance (growth) on LB agar plate” value (Bacillus subtilis BG3594; CDA 20 mg/L) was “+”, the “Resistance (growth) on LB agar plate” value (Bacillus subtilis BG3594; CDA 50 mg/L) was “−**” and the “Resistance (growth) on LB agar plate” value (Bacillus subtilis BG3594; CDA 100 mg/L) was “−”. The “Growth of BG3594 in presence of CDA” value (Bacillus subtilis BG3594; concentration of 20 mg/L) was “can still grow”, the “Growth of BG3594 in presence of CDA” value (Bacillus subtilis BG3594; concentration of 50 mg/L) was “totally inhibited” and the “Resistance (growth) on LB agar plate” value (BG3594, pDALsub1; CDA 20 mg/L) was “+”. The “Resistance (growth) on LB agar plate” value (BG3594, pDALsub1; CDA 50 mg/L) was “+”, the “Resistance (growth) on LB agar plate” value (BG3594, pDALsub1; CDA 100 mg/L) was “+” and the “Growth of BG3594 with alr-expressing plasmid in presence of CDA” value (BG3594, pDALsub1; all CDA concentrations tested (up to 100 mg/L), LB agar) was “allows growth”.
